This passage reports Ki results from BindingDB's records for doi:10.1016/j.bmcl.2021.128008 (National Institute of Diabetes and Digestive and Kidney …, 2021).

The target of this test is D(1B) dopamine receptor (Homo sapiens, UniProt P21918). Description: Inhibition of dopamine D5 receptor (unknown origin).
Sequence of D(1B) dopamine receptor (P21918 whole entry): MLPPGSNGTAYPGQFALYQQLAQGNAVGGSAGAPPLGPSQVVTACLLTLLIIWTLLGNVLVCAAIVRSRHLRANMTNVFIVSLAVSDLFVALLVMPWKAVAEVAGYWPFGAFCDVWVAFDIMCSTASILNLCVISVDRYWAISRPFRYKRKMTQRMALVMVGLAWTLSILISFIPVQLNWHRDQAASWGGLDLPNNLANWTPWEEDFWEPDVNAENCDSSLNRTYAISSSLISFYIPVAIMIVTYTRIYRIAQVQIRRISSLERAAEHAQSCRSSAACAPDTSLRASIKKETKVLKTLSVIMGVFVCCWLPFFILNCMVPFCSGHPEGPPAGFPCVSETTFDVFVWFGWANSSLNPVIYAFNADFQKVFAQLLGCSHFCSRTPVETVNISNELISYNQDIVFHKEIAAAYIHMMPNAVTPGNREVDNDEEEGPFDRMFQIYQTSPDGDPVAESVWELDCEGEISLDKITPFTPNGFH

A word on the Ki: it is a measure of affinity in units of concentration, obtained from inhibition or displacement. Turning to `CC(C)(C)C#Cc1ccc2c(c1)C=C([N+](=O)[O-])C(C(F)(F)F)O2` (stereo unspecified), the Ki is 2.1 µM.
